Source: ChEMBL document CHEMBL3286257, “Development of second generation EP2 antagonists with high selectivity” (Eur J Med Chem, 2014)
Converted amounts (≈) assume the structure as drawn.

Legend:
[1] = molecular target: Prostaglandin E2 receptor EP2 subtype (Homo sapiens) (UniProt P43116); test: Antagonist activity at EP2 receptor (unknown origin) expressed in rat C6 cells assessed as inhibition of PGE2-induced response; type: cell-based
[2] = molecular target: Prostaglandin E2 receptor EP4 subtype (Homo sapiens) (UniProt P35408); test: Antagonist activity at EP4 receptor (unknown origin) expressed in rat C6 cells assessed as inhibition of PGE2-induced response; type: cell-based
Homo sapiens [3] = species on record: Homo sapiens; test: Selectivity index, ratio of KB for EP4 receptor (unknown origin) to KB for EP2 receptor (unknown origin)
[4] = molecular target: T1, Prostaglandin D2 receptor (Homo sapiens) (UniProt Q13258); test: Antagonist activity at DP1 receptor (unknown origin) expressed in rat C6 cells by TR-FRET assay; type: cell-based
T1 sequence (whole entry): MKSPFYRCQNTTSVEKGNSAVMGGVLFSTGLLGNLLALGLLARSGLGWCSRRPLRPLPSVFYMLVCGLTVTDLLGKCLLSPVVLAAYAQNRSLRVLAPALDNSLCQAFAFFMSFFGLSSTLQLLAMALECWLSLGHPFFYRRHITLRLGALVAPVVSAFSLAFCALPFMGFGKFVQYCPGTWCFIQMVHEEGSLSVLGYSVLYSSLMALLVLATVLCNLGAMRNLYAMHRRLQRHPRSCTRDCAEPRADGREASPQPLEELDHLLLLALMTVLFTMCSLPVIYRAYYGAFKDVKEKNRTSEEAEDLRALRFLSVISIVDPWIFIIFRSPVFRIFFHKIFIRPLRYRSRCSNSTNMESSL

Homo sapiens [5] = species on record: Homo sapiens; test: Selectivity index, ratio of KB for DP1 receptor (unknown origin) to KB for EP2 receptor (unknown origin)
[6] = molecular target: Prostacyclin receptor (Homo sapiens) (UniProt P43119); test: Antagonist activity at IP receptor (unknown origin) expressed in rat C6 cells by TR-FRET assay; type: cell-based
Homo sapiens [7] = species on record: Homo sapiens; test: Selectivity index, ratio of KB for IP receptor (unknown origin) to KB for EP2 receptor (unknown origin)
C6 = test: (§1) Cytotoxicity against rat C6 cells; type: cell-based; settings: c6
EP2 receptor = test: Therapeutic index, ratio of CC50 for rat C6 cells to KB for EP2 receptor (unknown origin); type: cell-based; settings: read-out: TI
[8] = molecular target: Prostaglandin E2 receptor EP2 subtype (Homo sapiens) (UniProt P43116); test: Competitive antagonist activity at human EP2 receptor assessed as inhibition of PGE2-induced response
[9] = Metabolic stability of the compound in human liver microsomes assessed as compound remaining at 10 uM after 15 mins; type: ADME; settings: read-out: Stability
[10] = Metabolic stability of the compound in human liver microsomes assessed as compound remaining at 10 uM after 30 mins; type: ADME; settings: read-out: Stability
[11] = Metabolic stability of the compound in human liver microsomes assessed as compound remaining at 10 uM after 60 mins; type: ADME; settings: read-out: Stability
[12] = Metabolic stability of the compound in mouse liver microsomes assessed as compound remaining at 10 uM after 15 mins; type: ADME; settings: read-out: Stability
[13] = Metabolic stability of the compound in mouse liver microsomes assessed as compound remaining at 10 uM after 30 mins; type: ADME; settings: read-out: Stability
[14] = Metabolic stability of the compound in mouse liver microsomes assessed as compound remaining at 10 uM after 60 mins; type: ADME; settings: read-out: Stability
[15] = Aqueous solubility of the compound by nephelometry method; type: physicochemical; settings: buffer
[16] = as §1; type: cell-based; settings: C6 cells
[17] = Cmax in C57Bl/6 mouse at 5 mg/kg, ip; type: ADME, organism-based; parameters: dose 5 mg/kg, route intraperitoneal; settings: in vivo
[18] = AUClast in C57Bl/6 mouse at 5 mg/kg, ip; type: ADME, organism-based; parameters: time 0 - last, dose 5 mg/kg, route intraperitoneal; settings: plasma
[19] = AUC (infinity) in C57Bl/6 mouse at 5 mg/kg, ip; type: ADME, organism-based; parameters: time infinity, dose 5 mg/kg, route intraperitoneal; settings: plasma
[20] = Terminal half life in C57Bl/6 mouse at 5 mg/kg, ip; type: ADME, organism-based; parameters: dose 5 mg/kg, route intraperitoneal; settings: in vivo, read-out: beta t1/2 (converted)
[21] = Cmax in C57Bl/6 mouse at 10 mg/kg, po; type: ADME, organism-based; parameters: dose 10 mg/kg, route oral; settings: in vivo

Prostaglandin E2 receptor EP4 subtype (Homo sapiens), sequence (P35408 whole entry): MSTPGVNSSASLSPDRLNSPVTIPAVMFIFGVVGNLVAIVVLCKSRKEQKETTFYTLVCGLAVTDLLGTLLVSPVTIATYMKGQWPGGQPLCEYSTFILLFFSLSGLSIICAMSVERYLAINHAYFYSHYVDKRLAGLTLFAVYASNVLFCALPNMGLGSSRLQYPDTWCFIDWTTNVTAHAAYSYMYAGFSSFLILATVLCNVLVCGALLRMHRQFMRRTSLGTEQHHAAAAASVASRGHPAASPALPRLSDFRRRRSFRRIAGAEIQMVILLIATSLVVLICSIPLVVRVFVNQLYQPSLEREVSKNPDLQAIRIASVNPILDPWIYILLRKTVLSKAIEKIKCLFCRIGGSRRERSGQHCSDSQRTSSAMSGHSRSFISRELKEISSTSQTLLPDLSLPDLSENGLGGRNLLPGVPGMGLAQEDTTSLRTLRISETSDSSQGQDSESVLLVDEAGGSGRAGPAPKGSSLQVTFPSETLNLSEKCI
Prostacyclin receptor (Homo sapiens), sequence (P43119 whole entry): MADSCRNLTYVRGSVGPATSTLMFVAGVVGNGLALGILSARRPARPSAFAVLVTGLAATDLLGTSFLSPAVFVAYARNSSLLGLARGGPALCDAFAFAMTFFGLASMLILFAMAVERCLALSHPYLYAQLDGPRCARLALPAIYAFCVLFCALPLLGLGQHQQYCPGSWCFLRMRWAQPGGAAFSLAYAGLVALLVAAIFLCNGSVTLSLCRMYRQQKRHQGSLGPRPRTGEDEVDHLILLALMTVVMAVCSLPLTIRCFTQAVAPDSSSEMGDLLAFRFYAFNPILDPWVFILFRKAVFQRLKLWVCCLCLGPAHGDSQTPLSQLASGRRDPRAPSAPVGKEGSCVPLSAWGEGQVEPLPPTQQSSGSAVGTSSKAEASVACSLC
Prostaglandin E2 receptor EP2 subtype (Homo sapiens), sequence (P43116 whole entry): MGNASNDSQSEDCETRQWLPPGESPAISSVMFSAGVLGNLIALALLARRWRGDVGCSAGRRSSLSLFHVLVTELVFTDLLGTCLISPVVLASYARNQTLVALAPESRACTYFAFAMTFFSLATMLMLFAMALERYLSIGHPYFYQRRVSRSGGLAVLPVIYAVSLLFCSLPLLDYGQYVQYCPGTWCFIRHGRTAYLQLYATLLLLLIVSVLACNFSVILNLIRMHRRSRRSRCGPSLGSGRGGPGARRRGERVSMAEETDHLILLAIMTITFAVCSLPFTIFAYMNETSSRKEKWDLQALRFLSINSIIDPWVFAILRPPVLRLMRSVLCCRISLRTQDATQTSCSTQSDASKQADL

Kb [1]	Kb [2]	Ratio (Homo sapiens [3])	Kb [4]	Ratio (Homo sapiens [5])	Kb [6]	Ratio (Homo sapiens [7])	Kb [8]	remaining at […], 10 µM [9]	remaining at 0.5 h, 10 µM [10]	remaining at 1 h, 10 µM [11]	remaining at […], 10 µM [12]	remaining at 0.5 h, 10 µM [13]	remaining at 1 h, 10 µM [14]	solubility kinetic [15]	Structure (SMILES)	CC50 (C6)	selectivity ratio (EP2 receptor)	other results
0.0096 µM	21 µM	2190	5.21 µM	533	1.98 µM	206	0.0161 µM	58%	38%	22%	8%	5%	0%	67 µM (≈ 24.4 µg/mL)	Cc1cc2ccccc2n1CCNC(=O)c1ccc(N2CCOCC2)cc1	289 µM	30100	–
0.0247 µM	28.7 µM	1160	> 10 µM	> 516	14.2 µM	570	–	22%	12%	1.4%	52%	32%	18%	< 25 µM	Cc1cc2ccccc2n1CCNC(=O)c1ccc(N2CCCC2)cc1	337 µM	16100	–
0.0069 µM	48 µM	6940	9.48 µM	1370	–	–	0.0163 µM	40%	20%	5%	34%	19%	5%	< 25 µM	CCN(CC)c1ccc(C(=O)NCCc2c(C)[nH]c3ccccc23)cc1	–	> 72500	CC50 [16]: > 500 µM
–	–	–	0.66 µM	–	–	–	0.0164 µM	96%	87%	73%	85%	75%	57%	257 µM (≈ 89 µg/mL)	Cc1cc2ccccc2n1CCNC(=O)c1ccc(-c2nnn[nH]2)cc1	–	–	CC50 [16]: > 300 µM; Cmax [17]: 2040 ng/mL; AUC(0-t) [18]: 1580 ng·h/mL; AUC(0-inf) [19]: 1600 ng·h/mL; half-life [20]: 18 min; Cmax [21]: 134 nM
0.0257 µM	14.5 µM	565	2.2 µM	85	5.6 µM	217	–	–	–	–	–	–	–	–	Cc1cc2ccccc2n1CCNC(=O)c1ccc(N2CCOCC2)c(F)c1	–	> 19400	CC50 [16]: > 500 µM
0.0897 µM	–	–	–	–	–	–	0.097 µM	97%	97%	95%	97%	92%	86%	> 750 µM	Cc1cc2ccccc2n1CCNC(=O)c1ccc(N2CCC(C(=O)O)CC2)cc1	–	–	–
0.0268 µM	70.3 µM	2620	4.62 µM	172	18.1 µM	675	–	66%	49%	31%	35%	12%	2%	160 µM (≈ 60.4 µg/mL)	Cc1cc2ccccc2n1CCNC(=O)c1ccc(N2CCC(O)CC2)cc1	163 µM	6080	–
0.0226 µM	23.6 µM	1040	7.72 µM	342	8.5 µM	375	–	66%	64%	28%	49%	37%	12%	< 25 µM	Cc1cc2ccccc2n1CCNC(=O)c1ccc(N2CCCCCC2)cc1	327 µM	14500	–
0.0094 µM	30.2 µM	3210	2.57 µM	273	3.4 µM	360	–	67%	42%	21%	24%	18%	7%	< 25 µM	Cc1cc2ccccc2n1CCNC(=O)c1ccc(N2CCCCC2)cc1	315 µM	33500	–
0.0027 µM	31.3 µM	11600	3.19 µM	1220	8 µM	2960	0.0175 µM	19%	9%	4%	< 14%	9%	3%	< 25 µM	CCN(CC)c1ccc(C(=O)NCCn2c(C)cc3ccccc32)cc1	320 µM	119000	–
0.0119 µM	15.5 µM	1320	3.55 µM	298	1.12 µM	95	–	40%	20%	5%	30%	26%	6%	< 25 µM	CCCN(CCC)c1ccc(C(=O)NCCn2c(C)cc3ccccc32)cc1	332 µM	28100	–
